Test system: rat
Assay: single oral administration toxicity to rat (minimum lethal dose)
Format: in vivo
Experimental: The toxicity of the compounds of the present invention is very low and therefore, the compounds may be considered safe for pharmaceutical use. For example, a minimum of lethal dose of N-hydroxy-5-hydroxy-2(S)-methyl-4(S) (4-phenoxybenzoyl)aminopentanamide and N-hydroxy-5-ethoxymethyloxy-2(S)-methyl-4(S)-(4-phenoxybenzoyl)aminopentanamide by single oral administration to rat was 2000 mg/kg.

Row | Structure (SMILES) | minimum of lethal dose
1 | CCOCOC[C@H](C[C@H](C)C(=O)NO)NC(=O)c1ccc(Oc2ccccc2)cc1 [Compound (2), N-hydroxy 5-ethoxymethyloxy-2(S)-methyl-4(S)-(4-phenoxybenzoyl) aminopentanamide] | 2000 mg/kg
2 | C[C@@H](C[C@@H](CO)NC(=O)c1ccc(Oc2ccccc2)cc1)C(=O)NO [Compound (1), N-hydroxy-5-hydroxy-2 (S)-methyl-4(S)-(4-phenoxybenzoyl) aminopentanamide] | 2000 mg/kg

Reference: US20060014835A1, “Therapeutic agent for chronic obstructive pulmonary disease” (priority 2002, published 2006)
